Results from ChEMBL document CHEMBL5729720, “Pyridine and pyrazine derivatives as preferential cannabinoid 2 agonists” (2023).

Target: Cannabinoid receptor 2 (Homo sapiens, UniProt P34972)
Experiment: Radioligand Binding Assay: The affinity of the compounds of the invention for cannabinoid CB1 receptors was determined using recommended amounts of membrane preparations (PerkinElmer) of human embryonic kidney (HEK) cells expressing the human CNR1 or CNR2 receptors in conjunction with 1.5 or 2.6 nM [3H]-CP-55,940 (Perkin Elmer) as radioligand, respectively. Binding was performed in binding buffer (50 mM Tris, 5 mM MgCl2, 2.5 mM EDTA, and 0.5% (wt/vol) fatty acid free BSA, pH 7.4 for CB1 receptor and 50 mM Tris, 5 mM MgCl2, 2.5 mM EGTA, and 0.1% (wt/vol) fatty acid free BSA, pH 7.4 for CB2 receptor) in a total volume of 0.2 ml for 1 h at 30° C. shaking. The reaction was terminated by rapid filtration through microfiltration plates coated with 0.5% polyethylenimine (UniFilter GFB filter plate; Packard). Bound radioactivity was analyzed for Ki using nonlinear regression analysis (Activity Base, ID Business Solution, Limited), with the Kd values for [3H]CP55,940 determined from saturation experiments. The compounds of formula (I) show an excellent affinity for the CB2 receptor.

Cannabinoid receptor 2, sequence (P34972 whole entry): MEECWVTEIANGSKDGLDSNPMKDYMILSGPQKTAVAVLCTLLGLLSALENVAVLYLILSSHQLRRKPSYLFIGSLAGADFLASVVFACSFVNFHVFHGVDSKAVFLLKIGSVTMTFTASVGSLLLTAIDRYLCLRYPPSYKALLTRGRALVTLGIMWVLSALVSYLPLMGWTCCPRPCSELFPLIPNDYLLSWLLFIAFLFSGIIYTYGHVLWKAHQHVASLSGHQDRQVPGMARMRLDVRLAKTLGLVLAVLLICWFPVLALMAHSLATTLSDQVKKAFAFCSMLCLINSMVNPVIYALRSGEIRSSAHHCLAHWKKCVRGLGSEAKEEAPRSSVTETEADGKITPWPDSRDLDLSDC

Row | Ki | Structure (SMILES)
1 | 3.7 nM | CCOC(=O)C(CC)(CC)NC(=O)c1ccc(N2CC(OC)C2)c(OC[C@H]2C[C@@H]2COCCF)n1 (mixture of isomers)
2 | 1.8 nM | CCOC(=O)C(CC)(CC)NC(=O)c1ccc(N2CC(OC)C2)c(OC[C@H]2C[C@@H]2COCF)n1 (mixture of isomers)

Row | Structure (SMILES) | Ki
3 | CCC(CC)(NC(=O)c1ccc(N2CC(OC)C2)c(OC[C@H]2C[C@@H]2CO)n1)C(=O)OCCCCF | 1.8 nM
